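All cell lines were grown in 96-well plates and treated with compound for 48 hours. GI50 = concentration required for 50% inhibition of growth. TGI: total growth inhibition.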
Tests used:
Assay in all cases: inhibition of tumour cell growth, NCI panel, 48 h
A498 renal = system: A498 renal
CCRF-CEM leukemia = system: CCRF-CEM leukemia
EKVX NSCLC = system: EKVX NSCLC
HL-60(TB) leukemia = system: HL-60(TB) leukemia
KM12 colon = system: KM12 colon
NCI-H226 lung = system: NCI-H226 lung
SF-295 CNS = system: SF-295 CNS
SK-MEL-28 melanoma = system: SK-MEL-28 melanoma
UO-31 renal = system: UO-31 renal
HS 578T breast = system: HS 578T breast

## COC(=O)/C(C#N)=C1\CCc2ccccc21
A498 renal
  TGI: > 100 µM
CCRF-CEM leukemia
  TGI: > 100 µM
EKVX NSCLC
  TGI: > 100 µM
HL-60(TB) leukemia
  TGI: > 100 µM
KM12 colon
  TGI: > 100 µM
NCI-H226 lung
  TGI: > 100 µM
SF-295 CNS
  TGI: > 100 µM
SK-MEL-28 melanoma
  TGI: > 100 µM
UO-31 renal
  TGI: > 100 µM

## Nc1ccc(C(=O)NN2C(=O)C(Cl)C2c2cccc(O)c2)cc1 (configuration not stated)
A498 renal
  TGI: 58.1 µM
CCRF-CEM leukemia
  TGI: 28.9 µM
EKVX NSCLC
  TGI: 46.6 µM
HL-60(TB) leukemia
  TGI: 8.76 µM
KM12 colon
  TGI: 22.5 µM
NCI-H226 lung
  TGI: 41.4 µM
SF-295 CNS
  TGI: 35.2 µM
SK-MEL-28 melanoma
  TGI: 31.9 µM
UO-31 renal
  TGI: 35 µM

## COc1cc(/C=C\c2ccncc2)cc(OC)c1OC
A498 renal
  TGI: > 100 µM
CCRF-CEM leukemia
  TGI: > 100 µM
EKVX NSCLC
  TGI: > 100 µM
HL-60(TB) leukemia
  TGI: > 100 µM
KM12 colon
  TGI: > 100 µM
NCI-H226 lung
  TGI: > 100 µM
SF-295 CNS
  TGI: > 100 µM
SK-MEL-28 melanoma
  TGI: > 100 µM
UO-31 renal
  TGI: > 100 µM

## O=C(Nc1ccccc1Cl)c1cccc(NC2=C(Cl)C(=O)N(Cc3ccccc3)C2=O)c1
A498 renal
  GI50: 24.6 µM
  TGI: 89.9 µM
EKVX NSCLC
  GI50: 88.3 µM
  TGI: > 100 µM
HL-60(TB) leukemia
  GI50: 1.4 µM
  TGI: 20.8 µM
HS 578T breast
  GI50: 30.2 µM
  TGI: > 100 µM
KM12 colon
  GI50: 0.0371 µM
  TGI: 9.86 µM
NCI-H226 lung
  GI50: 4.45 µM
  TGI: 46.4 µM
SF-295 CNS
  GI50: 23.3 µM
  TGI: 92.3 µM
SK-MEL-28 melanoma
  GI50: 18.6 µM
  TGI: > 100 µM
UO-31 renal
  GI50: 4.91 µM
  TGI: 53.8 µM

## COc1ccc2c(c1)C(=O)c1c-2n(CCCN)c(=O)c2cc([N+](=O)[O-])ccc12
A498 renal
  GI50: < 0.01 µM
  TGI: < 0.01 µM
CCRF-CEM leukemia
  GI50: < 0.01 µM
  TGI: < 0.01 µM
EKVX NSCLC
  GI50: < 0.01 µM
  TGI: 2.31 µM
HS 578T breast
  GI50: 1.81 µM
  TGI: 4.44 µM
KM12 colon
  GI50: 1.5 µM
  TGI: 3.46 µM
NCI-H226 lung
  GI50: < 0.01 µM
  TGI: < 0.01 µM
SF-295 CNS
  GI50: < 0.01 µM
  TGI: 12.2 µM
UO-31 renal
  GI50: < 0.01 µM
  TGI: 0.0172 µM

## Cc1cc(C)nc(NS(=O)(=O)c2ccc(NC(=O)c3cccn4c(=O)c5ccccc5nc34)cc2)n1
CCRF-CEM leukemia
  TGI: > 100 µM
EKVX NSCLC
  TGI: 99.7 µM
HL-60(TB) leukemia
  TGI: 44.1 µM
KM12 colon
  TGI: > 100 µM
NCI-H226 lung
  TGI: 97.3 µM
SF-295 CNS
  TGI: > 100 µM
SK-MEL-28 melanoma
  TGI: > 100 µM
UO-31 renal
  TGI: 74.7 µM

## CCN(CC)CCC(CNc1c(C)cnc2cc(Cl)ccc12)c1ccc(Cl)cc1 (configuration not stated)
CCRF-CEM leukemia
  GI50: 4.32 µM
  TGI: 19.2 µM
EKVX NSCLC
  GI50: 5.46 µM
  TGI: 19.5 µM
HL-60(TB) leukemia
  GI50: 4.45 µM
  TGI: 26.9 µM
HS 578T breast
  GI50: 12.3 µM
  TGI: 34.1 µM
KM12 colon
  GI50: 11 µM
  TGI: 25.3 µM
NCI-H226 lung
  GI50: 16 µM
  TGI: 31.5 µM
SF-295 CNS
  GI50: 2.53 µM
  TGI: 10.7 µM

## O=c1c(O)cccn1CCCN(CCCn1cccc(O)c1=O)CCn1cccc(O)c1=O
A498 renal
  GI50: 22.9 µM
  TGI: > 100 µM
CCRF-CEM leukemia
  GI50: 0.386 µM
  TGI: 3.79 µM
EKVX NSCLC
  GI50: 2.79 µM
  TGI: > 100 µM
HL-60(TB) leukemia
  GI50: 5.54 µM
  TGI: 55.3 µM
KM12 colon
  GI50: 3.12 µM
  TGI: > 100 µM
NCI-H226 lung
  GI50: 2.27 µM
  TGI: 61.8 µM
SF-295 CNS
  GI50: 3.63 µM
  TGI: > 100 µM
SK-MEL-28 melanoma
  GI50: 2.31 µM
  TGI: > 100 µM
UO-31 renal
  GI50: 7.6 µM
  TGI: > 100 µM

## CCC[CH2][Sn]([CH2]CCC)([O]C(=O)/C=C/c1ccccc1F)[O]C(=O)/C=C/c1ccccc1F
A498 renal
  GI50: 1.09 µM
  TGI: 2.29 µM
CCRF-CEM leukemia
  GI50: 0.139 µM
  TGI: 0.616 µM
EKVX NSCLC
  GI50: 1.43 µM
  TGI: 2.79 µM
HL-60(TB) leukemia
  GI50: 0.536 µM
  TGI: 4.87 µM
KM12 colon
  GI50: 1.38 µM
  TGI: 2.72 µM
NCI-H226 lung
  GI50: 0.775 µM
  TGI: 2.04 µM
SF-295 CNS
  GI50: 1.43 µM
  TGI: 2.78 µM
SK-MEL-28 melanoma
  GI50: 0.328 µM
  TGI: 1.29 µM
UO-31 renal
  GI50: 0.775 µM
  TGI: 2.06 µM

## O=C(O)[C@@H](NS(=O)(=O)c1ccc2ccccc2c1)c1ccccc1
A498 renal
  TGI: > 100 µM
CCRF-CEM leukemia
  TGI: > 100 µM
HL-60(TB) leukemia
  TGI: > 100 µM
SK-MEL-28 melanoma
  TGI: > 100 µM
UO-31 renal
  TGI: > 100 µM

## Nc1cc2cccc[n+]2c2cccc(Cl)c12
CCRF-CEM leukemia
  GI50: 12 µM
  TGI: 94.4 µM
EKVX NSCLC
  GI50: 32.1 µM
HL-60(TB) leukemia
  GI50: 47.4 µM
HS 578T breast
  GI50: 21.9 µM
  TGI: 60.2 µM
KM12 colon
  GI50: 4.1 µM
  TGI: 65.2 µM
NCI-H226 lung
  GI50: 18 µM
  TGI: 86 µM
SF-295 CNS
  GI50: 33.4 µM
SK-MEL-28 melanoma
  GI50: 17 µM
  TGI: 41.7 µM
UO-31 renal
  GI50: 61.4 µM

## N.N.N.N.N.O=S(=O)([O-])C(F)(F)F.O=S(=O)([O-])C(F)(F)F.[Os+8]
A498 renal
  GI50: 12 µM
  TGI: 29.5 µM
CCRF-CEM leukemia
  GI50: 6.89 µM
  TGI: 40.6 µM
EKVX NSCLC
  GI50: 43.6 µM
  TGI: > 100 µM
HL-60(TB) leukemia
  GI50: 8.92 µM
  TGI: 36.2 µM
KM12 colon
  GI50: 13.7 µM
  TGI: 35 µM
NCI-H226 lung
  GI50: 2.59 µM
  TGI: 8.69 µM
SF-295 CNS
  GI50: 8.07 µM
  TGI: 62.8 µM
SK-MEL-28 melanoma
  GI50: 10.8 µM
  TGI: 30.2 µM
UO-31 renal
  GI50: 12.8 µM
  TGI: 30.7 µM

## COC/N=C(/N)NC#N
A498 renal
  TGI: > 100 µM
CCRF-CEM leukemia
  TGI: > 100 µM
EKVX NSCLC
  TGI: > 100 µM
HL-60(TB) leukemia
  TGI: > 100 µM
KM12 colon
  TGI: > 100 µM
NCI-H226 lung
  TGI: > 100 µM
SF-295 CNS
  TGI: > 100 µM
SK-MEL-28 melanoma
  TGI: > 100 µM
UO-31 renal
  TGI: > 100 µM

## Nc1ccc(C(=O)N/C(=C\c2cccc([N+](=O)[O-])c2)c2nc3ccc(Cl)cc3[nH]2)cc1
CCRF-CEM leukemia
  TGI: > 100 µM
EKVX NSCLC
  TGI: > 100 µM
KM12 colon
  TGI: > 100 µM
SF-295 CNS
  TGI: > 100 µM
SK-MEL-28 melanoma
  TGI: > 100 µM
UO-31 renal
  TGI: > 100 µM

## CCSc1nc(N)c(C#N)c(-c2ccco2)c1C#N
A498 renal
  GI50: 26.5 µM
  TGI: > 100 µM
EKVX NSCLC
  GI50: 25.4 µM
  TGI: > 100 µM
HL-60(TB) leukemia
  GI50: 39.8 µM
  TGI: > 100 µM
HS 578T breast
  GI50: 33.9 µM
  TGI: > 100 µM
KM12 colon
  GI50: 27.4 µM
  TGI: > 100 µM
NCI-H226 lung
  GI50: 29.9 µM
  TGI: > 100 µM
SF-295 CNS
  GI50: 47.7 µM
  TGI: > 100 µM
SK-MEL-28 melanoma
  GI50: > 100 µM
  TGI: > 100 µM
UO-31 renal
  GI50: 56.1 µM
  TGI: > 100 µM

## COc1ccc(Cc2nc3ccccc3s2)cc1OC
A498 renal
  TGI: 49.5 µM
CCRF-CEM leukemia
  TGI: 44.7 µM
EKVX NSCLC
  TGI: 37.1 µM
HL-60(TB) leukemia
  TGI: 45.3 µM
KM12 colon
  TGI: 32.2 µM
NCI-H226 lung
  TGI: 45.7 µM
SF-295 CNS
  TGI: 28.9 µM
SK-MEL-28 melanoma
  TGI: 31.9 µM
UO-31 renal
  TGI: 30 µM

## Cc1nc2c(sc(=S)n2-c2ccccc2)c2nc3ccccc3n12
CCRF-CEM leukemia
  TGI: > 100 µM
EKVX NSCLC
  TGI: > 100 µM
HL-60(TB) leukemia
  TGI: > 100 µM
KM12 colon
  TGI: > 100 µM
NCI-H226 lung
  TGI: > 100 µM
SF-295 CNS
  TGI: > 100 µM
SK-MEL-28 melanoma
  TGI: > 100 µM
UO-31 renal
  TGI: > 100 µM

## CC(=O)[CH-]C(=O)Nc1ccccc1.CC(=O)[CH-]C(=O)Nc1ccccc1.CC[O-].CC[O-].[Ti+4]
A498 renal
  GI50: > 100 µM
  TGI: > 100 µM
CCRF-CEM leukemia
  GI50: > 100 µM
  TGI: > 100 µM
EKVX NSCLC
  GI50: > 100 µM
  TGI: > 100 µM
KM12 colon
  GI50: > 100 µM
  TGI: > 100 µM
NCI-H226 lung
  GI50: > 100 µM
  TGI: > 100 µM
SF-295 CNS
  GI50: > 100 µM
  TGI: > 100 µM
SK-MEL-28 melanoma
  GI50: > 100 µM
  TGI: > 100 µM
UO-31 renal
  GI50: > 100 µM
  TGI: > 100 µM

Reference: PubChem BioAssay (NCI)
